In general, melting point refers to the temperature, or range, at which the solid turns liquid.

Series [1] concerns the target T1, Phosphofructokinase (rabbit liver) (Oryctolagus cuniculus, UniProt Z9KA34MY27).
T1 construct: Phosphofructokinase: Enzyme (rabbit liver) was purchased from Sigma
In words: Phosphofructokinase selectivity assay. Type of series: biochemical. Conditions: result in words. As for the experimental part:
(§1) To determine the selectivity of compounds towards FBPase, effects of FBPase inhibitors on 5 key AMP binding enzymes were measured using the assays described below:
Phosphofructokinase: Enzyme (rabbit liver) was purchased from Sigma. Activity was measured at 30° C. in reactions in which the formation of fructose 1,6-bisphosphate was coupled to the oxidation of NADH via the action of aldolase, triosephosphate isomerase, and α-glycerophosphate dehydrogenase. Reaction mixtures (200 μL) were made up in 96-well microtitre plates and were read at 340 nm in a Molecular Devices Microplate Reader. The mixtures consisted of 200 mM Tris-HCl pH 7.0, 2 mM DTT, 2 mM MgCl2, 0.2 mM NADH, 0.2 mM ATP, 0.5 mM Fructose 6-phosphate, 1 unit aldolase/ml, 3 units/ml triosephosphate isomerase, and 4 units/mL α-glycerophosphate dehydrogenase. Test compound concentrations ranged from 1 to 500 μM. Reactions were started by the addition of 0.0025 units of phosphofructokinase and were monitored for 15 minutes.

Series [2] has as its target T2, hlFBPase (Homo sapiens, UniProt P09467).
T2 construct: made in house; host or cells: E. coli BL21
T2 sequence (P09467 2-338 limits assumed): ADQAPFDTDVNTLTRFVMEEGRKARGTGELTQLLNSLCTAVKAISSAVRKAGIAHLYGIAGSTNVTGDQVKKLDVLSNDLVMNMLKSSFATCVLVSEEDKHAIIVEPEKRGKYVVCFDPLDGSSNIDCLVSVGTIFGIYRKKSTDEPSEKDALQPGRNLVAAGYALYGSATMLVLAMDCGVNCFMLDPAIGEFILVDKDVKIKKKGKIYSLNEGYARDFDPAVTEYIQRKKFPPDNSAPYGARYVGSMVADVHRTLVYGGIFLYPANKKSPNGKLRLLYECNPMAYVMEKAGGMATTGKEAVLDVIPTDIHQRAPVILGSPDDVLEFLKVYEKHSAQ
In words: AMP site binding (displacement of radiolabeled AMP). As for the experimental part: To determine whether compounds bind to the allosteric AMP binding site of hlFBPase, the enzyme was incubated with radiolabeled AMP in the presence of a range of test compound concentrations. The reaction mixtures consisted of […] ^3H-AMP (54 mCi/mmol) and […] test compound in 25 mM Tris-HCl, pH 7.4, 100 mM KCl and 1 mM MgCl2. 1.45 mg of homogeneous FBPase (±1 nmole) was added last. After a 1 minute incubation, AMP bound to FBPase was separated from unbound AMP by means of a centrifugal ultrafiltration unit (“Ultrafree-MC”, Millipore) used according to the instructions of the manufacturer. The radioactivity in aliquots (100 μL) of the upper compartment of the unit (the retentate, which contrains enzyme and label) and the lower compartment (the filtrate, which contains unbound label) were quantified using a Beckman liquid scintillation counter. The amount of AMP bound to the enzyme was estimated by comparing the counts in the filtrate (the unbound label) to the total counts in the retentate.

The target of series [3] is T3, human liver FBPase (Homo sapiens, UniProt P09467).
T3 construct: made in house; host or cells: E. coli BL21
T3 sequence (P09467 2-338 limits assumed): T2 sequence (P09467 2-338 limits assumed)
In words: Inhibition of human liver FBPase. Conditions: for IC50: values in text, read-out: hlFBPase IC50. Type of series: biochemical.
Procedure: Enzymatic activity was measured spectrophotometrically in reactions that coupled the formation of product (fructose 6-phosphate) to the reduction of dimethylthiazoldiphenyltetrazolium bromide (MTT) via NADP and phenazine methosulfate (PMS), using phosphoglucose isomerase and glucose 6-phosphate dehydrogenase as the coupling enzymes. Reaction mixtures (200 μl) were made up in 96-well microtitre plates, and consisted of 50 mM Tris-HCl, pH 7.4, 100 mM KCl, 5 mM EGTA, 2 mM MgCl2, 0.2 mM NADP, 1 mg/ml BSA, 1 mM MTT, 0.6 mM PMS, 1 unit/mL phosphoglucose isomerase, 2 units/mL glucose 6-phosphate dehydrogenase, and 0.150 mM substrate (fructose 1,6-bisphosphate). Inhibitor concentrations were varied from 0.01 μM to 10 μM. Reactions were started by the addition of 0.002 units of pure hlFBPase and were monitored for 7 minutes at 590 nm in a Molecular Devices Plate Reader (37° C.).

The target in series [4] is T4, Human adenosine kinase (Homo sapiens, UniProt P55263).
T4 construct: made in house; host or cells: E. coli
T4 sequence (P55263 1-345 isoform P55263-2): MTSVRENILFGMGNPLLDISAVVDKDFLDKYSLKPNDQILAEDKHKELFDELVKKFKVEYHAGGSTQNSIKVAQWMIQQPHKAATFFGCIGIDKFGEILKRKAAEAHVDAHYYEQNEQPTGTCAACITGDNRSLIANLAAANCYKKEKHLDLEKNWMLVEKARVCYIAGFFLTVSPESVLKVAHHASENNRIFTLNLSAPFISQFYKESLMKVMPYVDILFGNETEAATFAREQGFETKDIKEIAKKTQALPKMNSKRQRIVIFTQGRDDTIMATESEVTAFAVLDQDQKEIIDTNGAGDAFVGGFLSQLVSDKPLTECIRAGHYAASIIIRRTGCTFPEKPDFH
In words: Adenosine kinase selectivity assay. To be noted: for IC50: Table 3 Selectivity, read-out: Adenosine Kinase (inh.); for effect on adenosine kinase: result in words. Type of series: biochemical. The protocol: as §1
Adenosine Kinase: Human adenosine kinase was purified from an E. coli expression system as described by Spychala et al (Spychala, J., Datta, N. S., Takabayashi, K., Datta, M., Fox, I. H., Gribbin, T., and Mitchell, B. S. (1996) Proc. Natl. Acad. Sci. USA 93, 1232-1237). Activity was measured essentially as described by Yamada et at (Yamada, Y., Goto, H., Ogasawara, N. (1988) Biochim. Biophys. Acta 660, 36-43.) with a few minor modifications. Assay mixtures contained 50 mM TRIS-maleate buffer, pH 7.0, 0.1% BSA, 1 mM ATP 1 mM MgCl2, 1.0 μM [U-^14C] adenosine (400-600 mCi/mmol) and varying duplicate concentrations of inhibitor. ^14C-AMP was separated from unreacted ^14C-adenosine by absorption to anion exchange paper (Whatman) and quantified by scintillation counting.

The test system of series [5] is fasted Sprague Dawley rats. In words: Blood glucose lowering in fasted rats. Type of series: in vivo, rat. To be noted: 20 mg/kg intraperitoneally, 18 hours fasted Sprague Dawley rats, one hour post injection. The protocol: Sprague Dawley rats (250-300 g) were fasted for 18 hours and then dosed intraperitoneally with 20 mg/kg of compounds 12.53, 12.61, or 12.64. The vehicle used for drug administration was 50 mM sodium bicarbonate. Blood samples were obtained from the tail vein of conscious animals just prior to injection and one hour post injection. Blood glucose was measured using a HemoCue Inc. glucose analyzer according to the instructions of the manufacturer.

T1 sequence (Z9KA34MY27 1-780): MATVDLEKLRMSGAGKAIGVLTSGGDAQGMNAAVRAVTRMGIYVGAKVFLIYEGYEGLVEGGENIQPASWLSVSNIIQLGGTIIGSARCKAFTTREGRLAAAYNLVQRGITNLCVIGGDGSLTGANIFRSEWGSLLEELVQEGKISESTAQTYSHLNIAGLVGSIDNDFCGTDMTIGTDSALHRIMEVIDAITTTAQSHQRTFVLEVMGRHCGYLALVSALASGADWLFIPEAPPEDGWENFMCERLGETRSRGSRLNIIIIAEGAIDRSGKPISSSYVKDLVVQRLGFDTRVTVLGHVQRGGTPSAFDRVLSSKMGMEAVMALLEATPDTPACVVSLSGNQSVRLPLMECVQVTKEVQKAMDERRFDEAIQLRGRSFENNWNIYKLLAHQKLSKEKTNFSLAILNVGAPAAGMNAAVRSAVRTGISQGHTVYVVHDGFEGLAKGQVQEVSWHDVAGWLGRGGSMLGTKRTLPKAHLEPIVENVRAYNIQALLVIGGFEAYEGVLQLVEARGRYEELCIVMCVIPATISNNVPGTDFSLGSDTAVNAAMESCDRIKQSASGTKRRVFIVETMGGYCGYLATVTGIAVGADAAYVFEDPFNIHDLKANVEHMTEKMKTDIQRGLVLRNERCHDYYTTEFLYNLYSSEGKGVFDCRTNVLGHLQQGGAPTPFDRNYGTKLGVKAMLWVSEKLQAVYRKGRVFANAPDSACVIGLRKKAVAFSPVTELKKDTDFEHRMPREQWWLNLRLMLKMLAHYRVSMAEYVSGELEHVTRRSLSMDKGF

Compound `CCn1c(-c2ccc(P(=O)(O)O)o2)nc2c(N)cccc21` [Compound 12.1, 4-Amino-1-ethyl-2-[2-(5-phosphono)furanyl]benzimidazole] registered a melting point of over 250 °C. For the same compound, the effect on phosphofructokinase entry in series [1] is “essentially inactive”. The EC50 in series [2] (displacement of 3H-AMP from hlFBPase, read-out: ED50 for AMP displacement) stood at 50 µM. Further, the “displacement of AMP from human liver FBPase (FIG. 3)” value in series [2] (result in words) is “displaced AMP from human liver FBPase in a dose dependent manner”. The IC50 in series [3] was 2 µM. Also, in series [4], the IC50 was over 10 µM and the “effect on adenosine kinase” value was “essentially inactive”.
`Nc1c(F)ccc2c1nc(-c1ccc(P(=O)(O)O)o1)n2CC1CC1` [Compound 12.61, 4-Amino-5-fluoro-1-cyclopropylmethyl-2-(2-phosphono-5-furanyl)benzimidazole] registered a melting point of 258 to 260 °C. In addition, in series [5], the blood glucose lowering was 48±15%. Besides, in series [1], the effect on phosphofructokinase entry is listed as “essentially without effect”. The “inhibition of human liver FBPase activity (FIG. 2)” value in series [3] (result in words) is “inhibit human liver FBPase activity in vitro in a dose dependent manner”. Also, the IC50 in series [3] came to 0.055 µM. In series [4], the IC50 is over 100 µM and the “effect on adenosine kinase” value is given as “essentially without effect”.
`CCc1cc(F)c(N)c2nc(-c3ccc(P(=O)(O)O)o3)n(CC(C)C)c12` [Compound 12.64]: the blood glucose lowering in series [5] was 64.6±24%.
